The term Kd denotes the constant that tells how readily two partners part at equilibrium. A high value points to lower affinity.

Molecules are shown by their SMILES. Numbering of substitutions follows the chain as printed. Values joined by “and” are separate entries in the source; they are usually repeats but may differ in a detail not shown here. Equal values may be shown once. Read-outs that look alike come from different tables or passages of the source.

The target of experiment [1] is T1, human CYP11B1 wild type (Homo sapiens, UniProt P15538).
T1 sequence (P15538 28-503 limits assumed): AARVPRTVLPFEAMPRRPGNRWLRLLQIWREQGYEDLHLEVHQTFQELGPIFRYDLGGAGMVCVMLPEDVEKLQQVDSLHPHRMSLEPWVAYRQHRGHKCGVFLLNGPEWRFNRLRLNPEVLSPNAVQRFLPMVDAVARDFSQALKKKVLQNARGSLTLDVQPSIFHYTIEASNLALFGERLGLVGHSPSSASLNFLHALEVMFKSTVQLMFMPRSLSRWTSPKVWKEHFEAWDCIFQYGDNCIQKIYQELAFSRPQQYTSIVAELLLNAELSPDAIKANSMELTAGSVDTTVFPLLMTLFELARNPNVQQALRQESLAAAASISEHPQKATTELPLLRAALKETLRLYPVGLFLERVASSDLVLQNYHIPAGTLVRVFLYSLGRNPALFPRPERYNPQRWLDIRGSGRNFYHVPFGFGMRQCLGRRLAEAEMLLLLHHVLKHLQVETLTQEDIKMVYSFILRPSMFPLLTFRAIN
Kind of experiment: Spectroscopic titration of ferric enzyme (difference spectra), wild type. Conditions: for Spectral shift: one column for both wild type and mutant.
Description: (§1) Affinities of the two enzymes for the substrates DOC or DOF and other ligands were determined by titration assays using the ferric forms.
Spectroscopic studies were carried out at room temperature using a Jasco UV–visible spectrophotometer V-530. Purified enzymes were diluted to 1.0 ​μM for the wild type and 0.8–1.2 ​μM for the mutant with the buffer consisting of 50 ​mM potassium phosphate (pH 7.4), 150 ​mM NaCl, 20% (v/v) glycerol, and 0.05% (v/v) Tween 20. […] Dissociation constants for steroids and ligands were determined from spectral changes caused by titration with increasing concentrations of them. Data were analyzed using non-linear regression (Prism 8, GraphPad Software) to calculate Kd values. […] The dissociation constants were calculated from the apparent values by using the Kd values for DOC as the inhibitory constants. […] The steroids and ligands used for spectroscopic analyses were dissolved in dimethyl sulfoxide.

The target in experiment [2] is T2, human CYP11B1 mutant (W49R, L50N, L53N, W56R, L244N, W247N) (Homo sapiens, UniProt P15538, L244N/L50N/L53N/W247N/W49R/W56R).
T2 sequence (P15538 28-503 W49R/L50N/L53N/W56R/L244N/W247N limits assumed): T1 sequence (P15538 28-503 limits assumed) with W22R, L23N, L26N, W29R, L217N, W220N
As to the kind of experiment: Steady-state kinetics in reconstituted system (adrenodoxin reductase, adrenodoxin, NADPH), LC-MS/MS, mutant. In kind it is biochemical. Conditions: for Production of 18-hydroxy cortisol / 18-hydroxy corticosterone (11β,18-dihydroxylation): from DOF and DOC, respectively.

In experiment [3] the target is T2, human CYP11B1 mutant (W49R, L50N, L53N, W56R, L244N, W247N). As to the kind of experiment: Spectroscopic titration of ferric enzyme (difference spectra), mutant. Conditions: direct titration of ferric form, mean ± SE, n=3.
Description: as §1
Two forms, a wild type and a mutant, of recombinant human CYP11B1 were expressed as 486-amino acid residue polypeptide (Fig. S2).
Spectroscopic studies were carried out at room temperature using a Jasco UV–visible spectrophotometer V-530. Purified enzymes were diluted to 1.0 ​μM for the wild type and 0.8–1.2 ​μM for the mutant with the buffer consisting of 50 ​mM potassium phosphate (pH 7.4), 150 ​mM NaCl, 20% (v/v) glycerol, and 0.05% (v/v) Tween 20. Substrate DOC (Sigma) at 400 ​μM, sodium dithionite, and CO were added sequentially, and absolute spectra were recorded after each step. […] The data obtained with 5 ​mM Cymal-5 (Anatrace) in place of the substrate were also included in Fig. S4. Dissociation constants for steroids and ligands were determined from spectral changes caused by titration with increasing concentrations of them. Data were analyzed using non-linear regression (Prism 8, GraphPad Software) to calculate Kd values. […] The dissociation constants were calculated from the apparent values by using the Kd values for DOC as the inhibitory constants. […] The steroids and ligands used for spectroscopic analyses were dissolved in dimethyl sulfoxide.
The target of experiment [4] is T1, human CYP11B1 wild type. As to the kind of experiment: Steady-state kinetics in reconstituted system (adrenodoxin reductase, adrenodoxin, NADPH), LC-MS/MS, wild type. In kind it is biochemical.
Experiment [5] concerns CYP11B1 S288G/V320A / CYP11B2 Wild type. Details: method as in ref [2, 3] (a number printed in a supplementary file, which may have a reference list of its own: not looked up in the article's list). The following applies: group (iv); steroids produced from DOC, estimated against wild type controls; ref [2, 3]; cited from earlier work.
In experiment [6] the test system is CYP11B1 Wild type / CYP11B2 G288S. Also on record: method as in ref [2, 3] (a number printed in a supplementary file, which may have a reference list of its own: not looked up in the article's list). Conditions: group (ii); steroids produced from DOC, estimated against wild type controls; ref [2, 3]; cited from earlier work.
The subject of experiment [7] is CYP11B2 Wild type. Details: method as in ref [1] (a number printed in a supplementary file, which may have a reference list of its own: not looked up in the article's list). The following applies: calculated from kcat values with substrate DOC, ref [1]; cited from earlier work.
Experiment [8] has as its system CYP11B1 S288G / CYP11B2 R181W/V386A. Also on record: method as in ref [2, 3] (a number printed in a supplementary file, which may have a reference list of its own: not looked up in the article's list). The following applies: group (iii); steroids produced from DOC, estimated against wild type controls; ref [2, 3]; cited from earlier work.
Where [9] appears, read: CYP11B1 mutant, calculated from kcat values with substrate DOC.
[10] abbreviates: CYP11B1 wild type (this study), calculated from kcat values with substrate DOC.

For the molecule `C[C@]12CCC(=O)C=C1CC[C@@H]1[C@@H]2CC[C@@]2(C)[C@H]1CC[C@]2(O)C(=O)CO` [DOF, 11-deoxycortisol], the Kd in experiment [1] is 21.2 µM; in experiment [3] it was 3.3 µM and 3.31 µM. For the same molecule, the Spectral shift entry in experiment [1] is listed as “Type I”. Further, the “kcat, 11β-hydroxylation” value in experiment [2] (Mutant, DOF to cortisol, DOC to corticosterone) turned out to be 1.51 s⁻¹; in experiment [4] (Wild type, DOF to cortisol, DOC to corticosterone) it was 2.157 s⁻¹. Moreover, in experiment [2] (Mutant), the “Production of 18-hydroxy cortisol / 18-hydroxy corticosterone (11β,18-dihydroxylation)” value was “did not produce”. The “kcat, 11β,18-diOHase” value in experiment [2] (Mutant, product 18OH-F (from DOF) or 18OH-B (from DOC)) amounted to 0 s⁻¹.
In the case of `C[C@]12CC[C@H]3[C@@H](CCC4=CC(=O)CC[C@@]43C)[C@@H]1CC[C@@H]2C(=O)CO` [DOC, 11-deoxycorticosterone], in experiment [5], the “Activity class, 11b,18-diOHase” value was “++ (Percentages 0, >0 and ≤1, >1 and ≤10, and >10 are indicated by (-), (+), (++), and (+++), respectively)”; the “Activity class, 11b,18-diOHase,18-oxidase” value is “+ (Percentages 0, >0 and ≤1, >1 and ≤10, and >10 are indicated by (-), (+), (++), and (+++), respectively)”; the “Activity class, 11b-OHase” value is “+++ (Percentages 0, >0 and ≤1, >1 and ≤10, and >10 are indicated by (-), (+), (++), and (+++), respectively)”. Also, in experiment [1], the dissociation constant Kd came out at 15.1 µM and the Spectral shift entry is “Type I”. In experiment [2], the “kcat, 11β,18-diOHase” value was determined as 0 s⁻¹; the “kcat, 11β,18-diOHase,18-oxidase” value is 0 s⁻¹; the “kcat, 11β-hydroxylation” value came out at 2.212 s⁻¹. Besides, in experiment [2] (setting [9]), the “Relative activity (molar product ratio), 11b,18-diOHase” value is listed as 0%; the “Relative activity (molar product ratio), 11b,18-diOHase,18-oxidase” value is 0%; the “Relative activity (molar product ratio), 11b-OHase” value is 95.8%; the “Relative activity (molar product ratio), 18-OHase” value is reported as 4.2%. Moreover, the Production of aldosterone entry in experiment [2] (Mutant, from DOC) is listed as “not produced”. Further, the “Production of 18-hydroxy cortisol / 18-hydroxy corticosterone (11β,18-dihydroxylation)” value in experiment [2] (Mutant) is recorded as “did not produce”. Moreover, in experiment [6], the “Activity class, 11b,18-diOHase” value is “+ (Percentages 0, >0 and ≤1, >1 and ≤10, and >10 are indicated by (-), (+), (++), and (+++), respectively)”; the “Activity class, 11b,18-diOHase,18-oxidase” value was “- (Percentages 0, >0 and ≤1, >1 and ≤10, and >10 are indicated by (-), (+), (++), and (+++), respectively)”; the “Activity class, 11b-OHase” value was “+++ (Percentages 0, >0 and ≤1, >1 and ≤10, and >10 are indicated by (-), (+), (++), and (+++), respectively)”. For the same molecule, the Kd in experiment [3] is 3.8 µM and 3.81 µM. Moreover, in experiment [4], the “kcat, 11β,18-diOHase,18-oxidase” value was found to be 0 s⁻¹; the “kcat, 11β,18-dihydroxylation” value worked out at 0.0108 s⁻¹; the “kcat, 11β-hydroxylation” value was 2.683 s⁻¹; the “kcat, 18-hydroxylation” value was determined as 0.132 s⁻¹. In addition, in experiment [4] (setting [10]), the “Relative activity (molar product ratio), 11b,18-diOHase” value was 0.4%; the “Relative activity (molar product ratio), 11b,18-diOHase,18-oxidase” value is given as 0%; the “Relative activity (molar product ratio), 11b-OHase” value is 94.9%; the “Relative activity (molar product ratio), 18-OHase” value is on record as 4.7%. Besides, the Production of aldosterone entry in experiment [4] (Wild type, from DOC) was “not produced”. Further, in experiment [7], the “Relative activity (molar product ratio), 11b,18-diOHase” value is on record as 2.7%; the “Relative activity (molar product ratio), 11b,18-diOHase,18-oxidase” value is reported as 0.5%; the “Relative activity (molar product ratio), 11b-OHase” value is on record as 92.6%; the “Relative activity (molar product ratio), 18-OHase” value is reported as 4.2%. In addition, in experiment [8], the “Activity class, 11b,18-diOHase” value is “++ (Percentages 0, >0 and ≤1, >1 and ≤10, and >10 are indicated by (-), (+), (++), and (+++), respectively)”; the “Activity class, 11b,18-diOHase,18-oxidase” value is “- (Percentages 0, >0 and ≤1, >1 and ≤10, and >10 are indicated by (-), (+), (++), and (+++), respectively)”; the “Activity class, 11b-OHase” value was “+++ (Percentages 0, >0 and ≤1, >1 and ≤10, and >10 are indicated by (-), (+), (++), and (+++), respectively)”.

The values above are taken from paper PMC8408562, “Spatially restricted substrate-binding site of cortisol-synthesizing CYP11B1 limits multiple hydroxylations and hinders aldosterone synthesis” (Current Research in Structural Biology, 2021).
